These are literature values, as cited in Sander's compilation of Henry's law constants (doi:10.1016/j.chemosphere.2021.129858).

A short description of the data set: Henry solubility constant Hcp at 298.15 K (mol/(m3 Pa)). The settings on record: reference: Schwardt et al. (2021); cited value.
With `ClC(Cl)(Cl)Cl` [tetrachloromethane], the “Henry solubility constant Hcp” value is 0.00034. As to `c1ccc2c(c1)-c1cccc3cccc-2c13` [benzo[jk]fluorene], the “Henry solubility constant Hcp” value was 0.58. Regarding `CCCl` [chloroethane], the “Henry solubility constant Hcp” value is 0.00081. Regarding `CC(Cl)CCl` (stereo not drawn) [1,2-dichloropropane], the “Henry solubility constant Hcp” value was 0.0037. Turning to `c1ccc2cc3ccccc3cc2c1` [anthracene], the “Henry solubility constant Hcp” value is 0.18. As for `Cc1ccccc1` [methylbenzene], the “Henry solubility constant Hcp” value was 0.0016. For `CC(Cl)(Cl)Cl` [1,1,1-trichloroethane], the “Henry solubility constant Hcp” value was 0.0006. On to `Cc1ccc(Cl)cc1Cl` [2,4-dichloro-1-methylbenzene], for which the “Henry solubility constant Hcp” value is 0.0027. Consider `Cc1ccc(C)cc1` [1,4-dimethylbenzene], for which the “Henry solubility constant Hcp” value is 0.0015. Consider `ClC=C(Cl)Cl` [trichloroethene], for which the “Henry solubility constant Hcp” value was 0.0011. For `CCc1ccccc1` [ethylbenzene], the “Henry solubility constant Hcp” value was 0.0014.

Regarding `Clc1ccccc1` [chlorobenzene], the “Henry solubility constant Hcp” value was 0.0024.

As to `CCCc1ccccc1` [propylbenzene], the “Henry solubility constant Hcp” value is 0.0009. In the case of `c1ccc2ccccc2c1` [naphthalene], the “Henry solubility constant Hcp” value is 0.021. With `Clc1ccc(Cl)cc1` [1,4-dichlorobenzene], the “Henry solubility constant Hcp” value was 0.0032. `Cc1cccc(C)c1` [1,3-dimethylbenzene]: the “Henry solubility constant Hcp” value was 0.0014. As for `ClC(Cl)=C(Cl)Cl` [tetrachloroethene], the “Henry solubility constant Hcp” value is 0.00057. Consider `ClCCl` [dichloromethane], for which the “Henry solubility constant Hcp” value is 0.0039.

For `ClCC(Cl)(Cl)Cl` [1,1,1,2-tetrachloroethane], the “Henry solubility constant Hcp” value is 0.005.

For the compound `Clc1cccc(Cl)c1` [1,3-dichlorobenzene], the “Henry solubility constant Hcp” value was 0.0031. As to `C=C(Cl)Cl` [1,1-dichloroethene], the “Henry solubility constant Hcp” value is 0.00037.

As to `c1ccc2c(c1)ccc1ccccc12` [phenanthrene], the “Henry solubility constant Hcp” value is 0.21.

`c1ccccc1` [benzene]: the “Henry solubility constant Hcp” value was 0.0018. With `Cc1ccccc1C` [1,2-dimethylbenzene], the “Henry solubility constant Hcp” value was 0.002. Turning to `ClC(Cl)C(Cl)Cl` [1,1,2,2-tetrachloroethane], the “Henry solubility constant Hcp” value was 0.023.

As for `C=CCl` [chloroethene], the “Henry solubility constant Hcp” value is 0.00041. For `c1cc2c3c(cccc3c1)CC2` [acenaphthene], the “Henry solubility constant Hcp” value was 0.054. On to `ClCC(Cl)Cl` [1,1,2-trichloroethane], for which the “Henry solubility constant Hcp” value was 0.011.
